Data as given in US6914045B2, “Glycopeptide antibiotics” (Wyeth Holdings Corporation, priority 2001, dated 2005).
≈ marks a conversion by molar mass, not a printed value.

Columns and labels:
[1] = system: Escherichia coli; assay: in vitro antibacterial evaluation, MIC by broth dilution; assay type: cell-based; details: 18 hours at 35° C., strain ATCC 25922
In short: (§1)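 Inoculum 5×10^5 CFU/mL; concentrations 64 to 0.06 μg/mL; MIC defined as lowest inhibitory level. Conducted by broth dilution under NCCLS guidelines.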

[2] = system: Staphylococcus sp.; assay: as above; assay type: cell-based; details: broth dilution, 18 hours at 35° C.
In short: as §1

[3] = system: Streptococcus sp.; assay: as above; assay type: cell-based; details: broth dilution, 18 hours at 35° C.
In short: as §1

[4] = system: Enterococcus sp.; assay: as above; assay type: cell-based; details: broth dilution, 18 hours at 35° C.
In short: as §1

[5] = system: Staphylococcus aureus-SMITH (GC 4543); assay: acute lethal infection in mice; assay type: in vivo; details: acute lethal infection, female CD-1 mice, intraperitoneal challenge, intravenous 30 min. after infection, 7 day survival
In short: (§2)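 Survival at 7 days, pooled from three independent tests, yields ED50 values. Treatment is intravenous, 30 min after ip infection of female CD-1 mice, using an inoculum lethal to untreated controls within 24-48 hr.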

[6] = system: Enterococcus faecalis (GC 2246); assay: acute lethal infection in mice; assay type: in vivo; details: female CD-1 mice, intraperitoneal challenge, intravenous 30 min. after infection, 7 day survival
In short: as §2

Structure (SMILES): CCCC(CCC)C(=O)OCC1OC(OC2C(CO)OC(Oc3ccc(CC4NC(=O)C(C(C)c5ccccc5)NC(=O)CNC(=O)C(CO)NC(=O)C(C(O)C5CNC(=N)N5C5OC(CO)C(O)C(O)C5O)NC(=O)C(C(O)C5CNC(=N)N5)NC4=O)cc3)C(O)C2O)C(O)C(O)C1O (stereo not drawn) [Example 99c, Cyclo[glycyl-β-methylphenylalanyl-O-[4-O-[6-O-(2-propylpentanoyl)hexopyranosyl]-hexolpyranosyl]tyrosyl-3-(2-iminoimidazolidin-4-yl)seryl-3-(3-hexopyranosyl-2-iminoimidazolidin-4-yl)serylseryl]]
- MIC Escherichia coli (ATCC 25922) [1]: 64 mg/L (≈ 45 µM)
- MIC Coagulase Negative Staphylococcus (GC 4547) [2]: 1 mg/L (≈ 0.703 µM)
- MIC Coagulase Negative Staphylococcus (GC 4548) [2]: 1 mg/L (≈ 0.703 µM)
- MIC Coagulase Negative Staphylococcus (GC 4549) [2]: 1 mg/L (≈ 0.703 µM)
- MIC Coagulase Negative Staphylococcus (GC 4551) [2]: 2 mg/L (≈ 1.41 µM)
- MIC Coagulase Negative Staphylococcus (ID-3941) [2]: 1 mg/L (≈ 0.703 µM)
- MIC Staphylococcus aureus (ATCC 29213) [2]: 1 mg/L (≈ 0.703 µM)
- MIC Staphylococcus aureus (GC 1131) [2]: 2 mg/L (≈ 1.41 µM)
- MIC Staphylococcus aureus (GC 4541) [2]: 2 mg/L (≈ 1.41 µM)
- MIC Staphylococcus aureus (GC 4542) [2]: 1 mg/L (≈ 0.703 µM)
- MIC Staphylococcus aureus (GC 4544) [2]: 2 mg/L (≈ 1.41 µM)
- MIC Staphylococcus aureus (GC 4545) [2]: 1 mg/L (≈ 0.703 µM)
- MIC Staphylococcus aureus-SMITH (GC 4543) [2]: 1 mg/L (≈ 0.703 µM)
- MIC Staphylococcus haemolyticus (GC 4546) [2]: 1 mg/L (≈ 0.703 µM)
- MIC Staphylococcus haemolyticus (GC 4546) ([2]; strain GC 4546): 1 mg/L (≈ 0.703 µM)
- MIC Coagulase Negative Staphylococcus (GC 4547) ([2]; strain GC 4547): 1 mg/L (≈ 0.703 µM)
- MIC Coagulase Negative Staphylococcus (GC 4548) ([2]; strain GC 4548): 1 mg/L (≈ 0.703 µM)
- MIC Coagulase Negative Staphylococcus (GC 4549) ([2]; strain GC 4549): 1 mg/L (≈ 0.703 µM)
- MIC Coagulase Negative Staphylococcus (GC 4551) ([2]; strain GC 4551): 2 mg/L (≈ 1.41 µM)
- MIC Coagulase Negative Staphylococcus (ID-3941) ([2]; strain ID-3941): 1 mg/L (≈ 0.703 µM)
- MIC Staphylococcus aureus-SMITH (GC 4543) ([2]; strain SMITH GC 4543): 1 mg/L (≈ 0.703 µM)
- MIC Staphylococcus aureus (ATCC 29213) ([2]; strain ATCC 29213): 1 mg/L (≈ 0.703 µM)
- MIC Staphylococcus aureus (GC 1131) ([2]; strain GC 1131): 2 mg/L (≈ 1.41 µM)
- MIC Staphylococcus aureus (GC 4541) ([2]; strain GC 4541): 2 mg/L (≈ 1.41 µM)
- MIC Staphylococcus aureus (GC 4542) ([2]; strain GC 4542): 1 mg/L (≈ 0.703 µM)
- MIC Staphylococcus aureus (GC 4544) ([2]; strain GC 4544): 2 mg/L (≈ 1.41 µM)
- MIC Staphylococcus aureus (GC 4545) ([2]; strain GC 4545): 1 mg/L (≈ 0.703 µM)
- MIC Streptococcus agalactiae (GC 4564) ([3]; Streptococcus agalactiae (GC 4564)): <0.5 mg/L
- MIC Streptococcus pneumoniae (GC 4565) ([3]; Streptococcus pneumoniae (GC 4565)): <0.5 mg/L
- MIC Streptococcus pyogenes (ID-3187) ([3]; Streptococcus pyogenes (ID-3187)): <0.5 mg/L
- MIC Streptococcus agalactiae (GC 4564) ([3]; strain GC 4564): <0.5 mg/L
- MIC Streptococcus pneumoniae (GC 4565) ([3]; strain GC 4565): <0.5 mg/L
- MIC Streptococcus pyogenes (ID-3187) ([3]; strain ID-3187): <0.5 mg/L
- MIC Enterococcus avium (GC 4558) ([4]; Enterococcus avium (GC 4558)): 4 mg/L (≈ 2.81 µM)
- MIC Enterococcus faecalis (ATCC 29212) ([4]; Enterococcus faecalis (ATCC 29212)): 4 mg/L (≈ 2.81 µM)
- MIC Enterococcus faecalis (GC 2242) ([4]; Enterococcus faecalis (GC 2242)): 4 mg/L (≈ 2.81 µM)
- MIC Enterococcus faecalis (GC 4552) ([4]; Enterococcus faecalis (GC 4552)): 4 mg/L (≈ 2.81 µM)
- MIC Enterococcus faecalis (GC 4553) ([4]; Enterococcus faecalis (GC 4553)): 4 mg/L (≈ 2.81 µM)
- MIC Enterococcus faecalis (GC 4554) ([4]; Enterococcus faecalis (GC 4554)): 4 mg/L (≈ 2.81 µM)
- MIC Enterococcus faecium (GC 2243) ([4]; Enterococcus faecium (GC 2243)): 4 mg/L (≈ 2.81 µM)
- MIC Enterococcus faecium (GC 4556) ([4]; Enterococcus faecium (GC 4556)): 4 mg/L (≈ 2.81 µM)
- MIC Enterococcus faecium (GC 4557) ([4]; Enterococcus faecium (GC 4557)): 2 mg/L (≈ 1.41 µM)
- MIC Enterococcus faecalis (ATCC 29212) ([4]; strain ATCC 29212): 4 mg/L (≈ 2.81 µM)
- MIC Enterococcus faecalis (GC 2242) ([4]; strain GC 2242): 4 mg/L (≈ 2.81 µM)
- MIC Enterococcus faecium (GC 2243) ([4]; strain GC 2243): 4 mg/L (≈ 2.81 µM)
- MIC Enterococcus faecalis (GC 4552) ([4]; strain GC 4552): 4 mg/L (≈ 2.81 µM)
- MIC Enterococcus faecalis (GC 4553) ([4]; strain GC 4553): 4 mg/L (≈ 2.81 µM)
- MIC Enterococcus faecalis (GC 4554) ([4]; strain GC 4554): 4 mg/L (≈ 2.81 µM)
- MIC Enterococcus faecium (GC 4556) ([4]; strain GC 4556): 4 mg/L (≈ 2.81 µM)
- MIC Enterococcus faecium (GC 4557) ([4]; strain GC 4557): 2 mg/L (≈ 1.41 µM)
- MIC Enterococcus avium (GC 4558) ([4]; strain GC 4558): 4 mg/L (≈ 2.81 µM)
- median effective dose (ED50), Staphylococcus aureus-SMITH (GC 4543) [5]: 0.52 mg/kg
- median effective dose (ED50), Enterococcus faecalis (GC 2246) [6]: 4.3 mg/kg
